Patent publication US9452981B2, “Pyroglutamic acid esters with improved biodegradability” (Clariant Produkte (Deutschland) GmbH, priority 2005, dated 2016)

Assay: Kinetic gas hydrate inhibition test in stirred steel autoclave
Settings: 5000 ppm based on the water phase; for Tind (time from attainment of 4° C. until the first gas absorption): distilled water and gas 20:80, 50 bar natural gas; for Tagg (time until the torque rises): distilled water and gas 20:80, 50 bar natural gas, 4° C.
Method: To investigate the inhibiting action of the polyesters, a stirred steel autoclave with temperature control, pressure and torque sensor with capacity 450 ml was used. For investigations of kinetic inhibition, the autoclave was filled with distilled water and gas in a volume ratio of 20:80; for investigations of agglomerate inhibition, condensate was additionally added. Finally, 50 bar of natural gas were injected. […] At first, a pressure decrease corresponding to the thermal compression of the gas is observed. When the formation of gas hydrate nuclei occurs during the cooling time, the pressure measured falls, and a rise in the torque measured and a slight increase, in the temperature are observed. Without inhibitors, further growth and increasing agglomeration of the hydrate nuclei lead rapidly to a further rise in the torque. When the mixture is heated, the gas hydrates decompose, so that the starting state of the experimental series is attained. The measure used for the inhibiting action of the polymer is the time from the attainment of the minimum temperature of 4° C. until the first gas absorption (Tind) or the time until the torque rises (Tagg). Long induction times or agglomeration times indicate an effect as a kinetic inhibitor. The torque measured in the autoclave serves, in contrast, as a parameter for the agglomeration of the hydrate crystals. […] Composition of the natural gas used: methane 84.8%, ethane 9.2%, propane 2.6%, butane 0.9%, carbon dioxide 1.6%, nitrogen 0.9%. The comparative substance used was a commercially available gas hydrate inhibitor based on polyvinylpyrrolidone. The dosage in all tests was 5000 ppm based on the water phase.

For `O=C1CC[C@@H](C(=O)OCCOCCOCCOC(=O)[C@@H]2CCC(=O)N2)N1` [Example 1, triethylene glycol di(pyroglutamate)], the “Tind (time from attainment of 4° C. until the first gas absorption)” value was 6.9 h and the “Tagg (time until the torque rises)” value was 7.2 h.

In the case of `O=C1CC[C@@H](C(=O)OCCOCCOCCOC(=O)[C@@H]2CCC(=O)N2)N1` [Example 2, triethylene glycol di(pyroglutamate)], the “Tind (time from attainment of 4° C. until the first gas absorption)” value is reported as 7.3 h and the “Tagg (time until the torque rises)” value is reported as 7.4 h.
